≈ marks a conversion by molar mass, not a printed value.
test system: Staphylococcus aureus Smith; assay: MIC assay, modified agar dilution (CLSI), S. aureus Smith; format: cell-based; conditions: Staphylococcus aureus, agar dilution, 35° C., 16-20 hr; lowest concentration that completely inhibited growth; read-out: S_aureus_Smith_WT_MIC
How it was run: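 Strains were spotted at about 1×10^4 CFU onto compound-containing Mueller Hinton agar (two-fold series, 128-0.001 μg/mL), horse blood 5% added for pneumococcus and enterococcus. MIC read after 16-20 hr at 35 °C, following a modified CLSI agar dilution method.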

SMILES | MIC [µg/mL]
CCOC(=O)c1csc(CNC23CCC(CCc4c(F)cnc5ccc(OC)nc45)(CC2)OC3)n1 [Example 86, Ethyl 2-(((1-(2-(3-Fluoro-6-methoxy-1,5-naphthyridin-4-yl)ethyl)-2-oxabicyclo[2.2.2]octan-4-yl)amino)methyl)thiazole-4-carboxylate] | 16 (≈ 32 µM)
COc1ccc2ncc(F)c(CCC34CCC(NCc5cnn(CC(F)F)c5)(CC3)CO4)c2n1 [Example 92, N-((1-(2,2-Difluoroethyl)-1H-pyrazol-4-yl)methyl)-1-(2-(3-fluoro-6-methoxy-1,5-naphthyridin-4-yl)ethyl)-2-oxabicyclo[2.2.2]octan-4-amine] | 0.125 (≈ 0.263 µM)
COc1ccc2ncc(F)c(CCC34CCC(NCc5ccc6c(c5)OCCN6C)(CC3)CO4)c2n1 [Example 66, 1-(2-(3-Fluoro-6-methoxy-1,5-naphthyridin-4-yl)ethyl)-N-((4-methyl-3,4-dihydro-2H-benzo[b][1,4]oxazin-7-yl)methyl)-2-oxabicyclo[2.2.2]octan-4-amine] | 0.125 (≈ 0.254 µM)
N#Cc1ccc2ncc(F)c(CCC34CCC(NCc5ccc6c(n5)NC(=O)CO6)(CC3)CO4)c2n1 [Example 31, 7-Fluoro-8-(2-(4-((3-oxo-3,4-dihydro-2H-pyrido[3,2-b][1,4]oxazin-6-yl)methylamino)-2-oxabicyclo[2.2.2]octan-1-yl)ethyl)-1,5-naphthyridine-2-carbonitrile] | 0.063 (≈ 0.129 µM)
COc1ccc2ncc(F)c(CCC34CCC(NCc5cnc(N6CCOCC6)nc5)(CC3)CO4)c2n1 [Example 65, 1-(2-(3-Fluoro-6-methoxy-1,5-naphthyridin-4-yl)ethyl)-N-((2-morpholinopyrimidin-5-yl)methyl)-2-oxabicyclo[2.2.2]octan-4-amine] | 2 (≈ 3.93 µM)
N#Cc1cnc2ccc(=O)n(CC(O)C34CCC(NCc5ccc6c(n5)NC(=O)CO6)(CC3)CO4)c2c1 (stereo not drawn) [Example 162, 5-(2-Hydroxy-2-(4-((3-oxo-3,4-dihydro-2H-pyrido[3,2-b][1,4]oxazin-6-yl)methylamino)-2-oxabicyclo[2.2.2]octan-1-yl)ethyl)-6-oxo-5,6-dihydro-1,5-naphthyridine-3-carbonitrile] | 2 (≈ 3.98 µM)
COc1ccc2ncc(F)c(CCC34CCC(NCc5ccc6c(n5)NC(=O)C(C)(C)O6)(CC3)CO4)c2n1.Cl [Example 99, 6-((1-(2-(3-Fluoro-6-methoxy-1,5-naphthyridin-4-yl)ethyl)-2-oxabicyclo[2.2.2]octan-4-ylamino)methyl)-2,2-dimethyl-2H-pyrido[3,2-b][1,4]oxazin-3(4H)-one] | 0.25
Nc1ccc2ncc(F)c(CCC34CCC(NCc5ccc6c(n5)NC(=O)CO6)(CC3)CO4)c2n1 [Example 30, 6-((1-(2-(6-Amino-3-fluoro-1,5-naphthyridin-4-yl)ethyl)-2-oxabicyclo[2.2.2]octan-4-ylamino)methyl)-2H-pyrido[3,2-b][1,4]oxazin-3(4H)-one] | 2 (≈ 4.18 µM)
COc1ccc2nccc(CCC34CCC(NCc5ccc6c(n5)NC(=O)CO6)(CC3)CC4)c2n1.Cl [Example 1, 6-((4-(2-(6-Methoxy-1,5-naphthyridin-4-yl)ethyl)bicyclo[2.2.2]octan-1-ylamino)methyl)-2H-pyrido[3,2-b][1,4]oxazin-3(4H)-one Hydrochloride] | 0.031
COc1ccc2ncc(F)c(CCC34CCC(NCc5ccc6c(c5)OC(F)(F)O6)(CC3)CO4)c2n1 [Example 90, N-((2,2-Difluorobenzo[d][1,3]dioxol-5-yl)methyl)-1-(2-(3-fluoro-6-methoxy-1,5-naphthyridin-4-yl)ethyl)-2-oxabicyclo[2.2.2]octan-4-amine] | 0.125 (≈ 0.249 µM)
COc1ccc2ncc(F)c(CCC34CCC(NCc5ccc6c(c5)n(C)c(=O)n6C)(CC3)CO4)c2n1 [Example 91, 5-((1-(2-(3-Fluoro-6-methoxy-1,5-naphthyridin-4-yl)ethyl)-2-oxabicyclo[2.2.2]octan-4-ylamino)methyl)-1,3-dimethyl-1H-benzo[d]imidazol-2(3H)-one] | 16 (≈ 31.6 µM)
COc1cnc2ccc(=O)n(CCC34CCC(NCc5ccc6c(n5)NC(=O)CO6)(CC3)CO4)c2c1 [Example 120, 6-(((1-(2-(7-Methoxy-2-oxo-1,5-naphthyridin-1(2H)-yl)ethyl)-2-oxabicyclo[2.2.2]octan-4-yl)amino)methyl)-2H-pyrido[3,2-b][1,4]oxazin-3(4H)-one] | 0.016 (≈ 0.0326 µM)
O=C1COc2ccc(CNC34CCC(CCn5c(=O)ccc6ncc(F)cc65)(CC3)OC4)nc2N1 [Example 119, 6-((1-(2-(7-Fluoro-2-oxo-1,5-naphthyridin-1(2H)-yl)ethyl)-2-oxabicyclo[2.2.2]octan-4-ylamino)methyl)-2H-pyrido[3,2-b][1,4]oxazin-3(4H)-one] | 0.125 (≈ 0.261 µM)
COC(=O)[C@H]1C[C@H]1COc1ccc2ncc(F)c(CCC34CCC(NCc5ccc6c(n5)NC(=O)CO6)(CC3)CO4)c2n1 (single isomer, unassigned; enantiomer b) [Example 228, Methyl 2-((7-Fluoro-8-(2-(4-((3-oxo-3,4-dihydro-2H-pyrido[3,2-b][1,4]oxazin-6-yl)methylamino)-2-oxabicyclo[2.2.2]octan-1-yl)ethyl)-1,5-naphthyridin-2-yloxy)methyl)cyclopropanecarboxylate (Enantiomer B)] | 0.25 (≈ 0.423 µM)
COC(=O)c1cnc2ccc(=O)n(CCC34CCC(NCc5ccc6c(n5)NC(=O)CO6)(CC3)CO4)c2c1.Cl [Example 127, Methyl 6-Oxo-5-(2-(4-((3-oxo-3,4-dihydro-2H-pyrido[3,2-b][1,4]oxazin-6-yl)methylamino)-2-oxabicyclo[2.2.2]octan-1-yl)ethyl)-5,6-dihydro-1,5-naphthyridine-3-carboxylate Hydrochloride] | 0.25
COc1ccc2ncc(F)c(CCC34CCC(NCc5cc6c(cn5)OCC(=O)N6)(CC3)CO4)c2n1 [Example 96, 7-(((1-(2-(3-Fluoro-6-methoxy-1,5-naphthyridin-4-yl)ethyl)-2-oxabicyclo[2.2.2]octan-4-yl)amino)methyl)-1H-pyrido[3,4-b][1,4]oxazin-2(3H)-one] | 0.031 (≈ 0.0628 µM)
COc1ccc2ncc(C#N)c(CCC34CCC(NCc5ccc6c(n5)NC(=O)CO6)(CC3)CO4)c2n1 [Example 44, 6-Methoxy-4-(2-(4-((3-oxo-3,4-dihydro-2H-pyrido[3,2-b][1,4]oxazin-6-yl)methylamino)-2-oxabicyclo[2.2.2]octan-1-yl)ethyl)-1,5-naphthyridine-3-carbonitrile] | 0.016 (≈ 0.032 µM)
COc1cc(C)c2ncc(F)c(CCC34CCC(NCc5ccc6c(n5)NC(=O)CO6)(CC3)CO4)c2n1.Cl [Example 191, 6-((1-(2-(3-Fluoro-6-methoxy-8-methyl-1,5-naphthyridin-4-yl)ethyl)-2-oxabicyclo[2.2.2]octan-4-ylamino)methyl)-2H-pyrido[3,2-b][1,4]oxazin-3(4H)-one Hydrochloride] | 0.016
NCCCOc1ccc2ncc(F)c(CCC34CCC(NCc5ccc6c(n5)NC(=O)CO6)(CC3)CO4)c2n1 [Example 38, 6-((1-(2-(6-(3-Aminopropoxy)-3-fluoro-1,5-naphthyridin-4-yl)ethyl)-2-oxabicyclo[2.2.2]octan-4-ylamino)methyl)-2H-pyrido[3,2-b][1,4]oxazin-3(4H)-one] | 0.25 (≈ 0.466 µM)
COc1ccc2ncc(F)c(CCC34CCC(NCc5c(OC)c6ccccc6n(C)c5=O)(CC3)CO4)c2n1 [Example 103, 3-((1-(2-(3-Fluoro-6-methoxy-1,5-naphthyridin-4-yl)ethyl)-2-oxabicyclo[2.2.2]octan-4-ylamino)methyl)-4-methoxy-1-methylquinolin-2(1H)-one] | 4 (≈ 7.51 µM)
Cc1nccc2c1ccc(=O)n2CCC12CCC(NCc3ccc4c(n3)NC(=O)CO4)(CC1)CO2 [Example 110, 6-((1-(2-(5-Methyl-2-oxo-1,6-naphthyridin-1(2H)-yl)ethyl)-2-oxabicyclo[2.2.2]octan-4-ylamino)methyl)-2H-pyrido[3,2-b][1,4]oxazin-3(4H)-one] | 4 (≈ 8.41 µM)
Cl.O=C1COc2ccc(CNC34CCC(CCc5c(F)cnc6ccc(OCCCO)nc56)(CC3)OC4)nc2N1 [Example 35, 6-((1-(2-(3-Fluoro-6-(3-hydroxypropoxy)-1,5-naphthyridin-4-yl)ethyl)-2-oxabicyclo[2.2.2]octan-4-ylamino)methyl)-2H-pyrido[3,2-b][1,4]oxazin-3(4H)-one Hydrochloride] | 0.016
COc1ccc2ncc(F)c(CCC34CCC(NCc5csc(-c6ccccn6)n5)(CC3)CO4)c2n1 [Example 75, 1-(2-(3-Fluoro-6-methoxy-1,5-naphthyridin-4-yl)ethyl)-N-((2-(pyridin-2-yl)thiazol-4-yl)methyl)-2-oxabicyclo[2.2.2]octan-4-amine] | 4 (≈ 7.91 µM)
COc1ccc2ncc(F)c(CCC34CCC(NCc5ccc6c(n5)NC(=NO)CO6)(CC3)CO4)c2n1 [Example 48, 6-((1-(2-(3-Fluoro-6-methoxy-1,5-naphthyridin-4-yl)ethyl)-2-oxabicyclo[2.2.2]octan-4-ylamino)methyl)-2H-pyrido[3,2-b][1,4]oxazin-3(4H)-one Oxime] | 2 (≈ 3.93 µM)
O=C1COc2ccc(CNC34CCC(CCc5c(F)cnc6ccc(OCC7(CO)CC7)nc56)(CC3)OC4)nc2N1 [Example 42, 6-((1-(2-(3-Fluoro-6-((1-(hydroxymethyl)cyclopropyl)methoxy)-1,5-naphthyridin-4-yl)ethyl)-2-oxabicyclo[2.2.2]octan-4-ylamino)methyl)-2H-pyrido[3,2-b][1,4]oxazin-3(4H)-one] | 0.063 (≈ 0.112 µM)
COc1ccc2ccc(F)c(CCC34CCC(NCc5ccc6c(n5)NC(=O)CO6)(CC3)CO4)c2n1 [Example 153, 6-((1-(2-(7-Fluoro-2-methoxyquinolin-8-yl)ethyl)-2-oxabicyclo[2.2.2]octan-4-ylamino)methyl)-2H-pyrido[3,2-b][1,4]oxazin-3(4H)-one] | 0.063 (≈ 0.128 µM)

same assay, conditions: agar dilution, 35° C., 16-20 hr; lowest concentration that completely inhibited growth

SMILES | S_aureus_Smith_WT_MIC [µg/mL]
COc1ccc2ncc(F)c(CCC34CCC(NCc5cc6c(cn5)OCC(=O)N6)(CC3)CO4)c2n1 [Example 148, 7-((1-(2-(3-Fluoro-6-methoxy-1,5-naphthyridin-4-yl)ethyl)-2-oxabicyclo[2.2.2]octan-4-ylamino)methyl)-1H-pyrido[3,4-b][1,4]oxazin-2(3H)-one] | 0.0310
